Experimental data published in US20150352107A1, “ALPHA7 NEURONAL NICOTINIC RECEPTOR LIGAND AND ANTIPSYCHOTIC COMPOSITIONS” (AbbVie Inc., priority 2005, published 2015).
Entries after “also recorded” stand apart in the source; their conditions may differ. Read-outs that look alike come from different tables or passages of the source.

Legend:
[1] = cited from earlier work; for Optimal Dose and/or Minimally Effective Dose / EPS risk: dose of augmented risk: clinical use
DBA/2J mice = test: Prepulse inhibition (PPI) of startle in DBA/2 mice; assay type: in vivo, mouse; conditions: for dose at which efficacy was observed in DBA2 mouse PPI: i.p., antipsychotic alone, FIG. 1
Source text: Dysfunctions of sensory gating and information processing have been putatively associated with clinical features such as perpetual aberrations, hallucinations and distraction and been considered as potential precursors of sensory overload, cognitive fragmentation and disorganization. Among the physiological measures, one approach has involved the startle reflex with the prepulse inhibition (PPI) paradigm. […] PPI refers to a reduction in the acoustic startle reflex to a loud noise when the loud noise is preceded by a weak auditory stimulus. At short lead intervals, this has the effect of markedly reducing or gating the amplitude of the startle response and increasing its latency. Disruption of PPI occurs with agonists of dopamine and serotonin, and with glutamate/N-methyl D aspartate (NMDA) receptor antagonists, or can be induced by genetic (e.g., DBA2 mouse strain) and experimental manipulations (e.g., rearing rats in isolation, neurotoxic lesions, or other methods). […] (Olivier B., et al., Psychopharmacology (2001) vol. 156:284-290; Ouagazzal A-M., Psychopharmacology (2001) vol. 156:273-283; Simosky J. K., Psychopharmacology (2003) vol. 165:386-396). To accomplish the study, the following materials and methods were used.
Male DBA/2J mice (Jackson Laboratories AX9 facility, Bar Harbor, Me., USA) at age 6-8 weeks old were used for all investigations.
Startle response and PPI were measured using startle chambers from Hamilton Kinder (Poway, Calif., USA). Each chamber contained a plexiglas rectangle with an adjustable ceiling housed in a ventilated, sound-attenuated cubicle. The ceiling was adjusted on an individual (animal by animal) basis to allow for adequate headroom but no rears or extensive locomotion. The chamber was placed over an anchor plate attached to a piezoelectric disk to transduce startle responses to a computer. A loudspeaker located in each chamber delivered the background noise (65 dB), and the acoustic stimuli. A constant white noise was maintained in the experimental room for the duration of the experiment by a white noise generator (Radioshack, USA). Each session was initiated with a 5-minute acclimation period followed by four successive 120 dB, 40 ms trials. These trials were not included in the main analysis, but are referred to as baseline responses. Animals were then presented with 5 different trial types: startle pulse (120 dB, 40), or prepulse stimulus of one of three sound levels (70, 75, or 80 dB) for 20 ms, followed 100 ms later by an acoustic startle (120 dB) for 40 ms. A total of 12 trials under each condition were delivered in a random sequence and all trials were separated by a variable inter-trial interval of 5-25 s. Finally, this sequence ended with the presentation of four 120 dB, 40 ms sound bursts (not included in the main analyses, but included in the baseline or habituation analyses). The animals were injected with the test compounds 30 minutes before the start of the trials. In the startle alone trials, the basic auditory startle, or startle response was measured, and in the prepulse plus startle trials, the levels of PPI was calculated as a percentage score for each acoustic prepulse trial type using (typically) the formula: […].
Data were first analyzed using a two-way repeated measures analysis of variance (ANOVA) with two independent factors. If there was a significant interaction of both factors, subsequent post hoc one-way ANOVAs were performed using each treatment combination as an independent group. All post hoc significance was determined using Fishers protected least significant difference test. (p<0.05 was regarded as significant).
Startle response and PPI were measured using startle chambers from Hamilton Kinder (Poway, Calif., USA). Each chamber contained a plexiglas rectangle with an adjustable ceiling housed in a ventilated, sound-attenuated cubicle. […]

Sprague Dawley rats = test: Catalepsy bar test in rats (EPS predictor)
Protocol: One of the adverse effects of antipsychotic medications is extrapyramidal movement disorder syndrome attributed to blockade of the dopamine D2 receptors. Extrapyramidal movement disorder can be predicted by the cataleptic response elicited by an antipsychotic in a rodent. To assess whether Compound 1 alone evoked cataleptic responses or interfered with the cataleptic effect of the antipsychotic, the following set of studies were conducted. The materials and methods used to accomplish the study follow.
Male Sprague Dawley rats (CRL: CD (SD), Charles River Laboratories, Omaha, Nebr.) weighing 300-325 g were used for the experiment.
Rats were handled and habituated to the testing room before starting. […] The degree of catalepsy was measured by gently placing both forepaws over a metal bar (1.1 cm. diameter suspended 8 cm. above the table top). The time in seconds until the rat took both paws off the bar was recorded, with a maximum cut-off of 300 seconds. […] Alternately, any catalepsy trial time that was greater than 15 seconds (up to 300 seconds) was recorded.
Rats were handled and habituated to the testing room before starting. […] The degree of catalepsy was measured by gently placing both forepaws over a metal bar (1.1 cm. diameter suspended 8 cm. above the table top). The time in seconds until the rat took both paws off the bar was recorded, with a maximum cut-off of 300 seconds. […]

## O=C(CCCN1CCC(O)(c2ccc(Cl)cc2)CC1)c1ccc(F)cc1 [Haloperidol, 4-(4-[4-chlorophenyl]-4-hydroxy-1-piperidinyl)-1-(4-fluorophenyl)-1-butanone]
[1]
  Optimal Dose and/or Minimally Effective Dose: 2 to 5 mg/day
[1]; risk for EPS
  Dose of Increased Side Effect Risk: ~3 mg
DBA/2J mice
  dose at which efficacy was observed in DBA2 mouse PPI: 3 mg/kg

## c1ccc(-c2ccc(N3CC4CNCC4C3)nn2)cc1 (centres unmarked) [Compound 2, 2-(6-phenylpyridazin-3-yl)octahydropyrrolo[3,4-c]pyrrole]
DBA/2J mice; Compound 2 0.4-4.0 mg/kg + risperidone 0.1 mg/kg, FIG. 7
  effect on PPI in combination with sub efficacious risperidone: attained maximal efficacy; also recorded: potentiates the efficacy of risperidone
DBA/2J mice; Compound 2 alone 0.04-4.0 mg/kg, FIG. 6
  effect on PPI, alone: no effect
Sprague Dawley rats; Compound 2 4.0 mg/kg i.p. + risperidone 2.5 mg/kg i.p., FIG. 11
  effect on risperidone-induced catalepsy: did not significantly alter cataleptic behavior of risperidone

## O=C1CCc2ccc(OCCCCN3CCN(c4cccc(Cl)c4Cl)CC3)cc2N1 [Arpiprazole]
[1]
  Optimal Dose and/or Minimally Effective Dose: 15 mg/day

## O=C(N[C@H]1CN2CCC1CC2)c1ccc(Cl)cc1.O=C(O)/C=C/C(=O)O [Compound 3, N-(3R)-1-azabicyclo[2,2,2]oct-3-yl-4-chlorobenzamide fumarate]
DBA/2J mice; Compound 3 1.0-10.0 mg/kg + risperidone 0.1 mg/kg, FIG. 9, fumarate
  effect on PPI in combination with sub efficacious risperidone: attained maximal efficacy; also recorded: boosting the effect of a sub efficacious dose of risperidone
DBA/2J mice; Compound 3 alone 1.0-10.0 mg/kg, FIG. 8
  effect on PPI, alone: no effect
Sprague Dawley rats; Compound 3 3.0 mg/kg i.p. + risperidone 2.5 mg/kg i.p., FIG. 12
  effect on risperidone-induced catalepsy: did not significantly alter cataleptic behavior of risperidone

## Cc1nc2n(c(=O)c1CCN1CCC(c3noc4cc(F)ccc34)CC1)CCCC2 [Risperidone, 3-[2-[4-(6-fluoro-1,2-benzisoxazol-3-yl)-1-piperidinyl]ethyl]-6,7,8,9-tetrahydro-2-methyl-4H-pyrido[1,2-a]pyrimidin-4-one]
[1]; EPS risk
  Dose of Increased Side Effect Risk: ≧6 mg/day
[1]
  EPS risk: dose of augmented risk: risk >6 mg/kg/day
  Optimal Dose and/or Minimally Effective Dose: 4 to 6 mg/day

## CN1CCN(C2=Nc3cc(Cl)ccc3Nc3ccccc32)CC1 [Clozapine, 8-chloro-11-(4-methyl-1-piperazinyl)-5H-dibenzo[b,e][1,4]diazepine]
[1]
  Optimal Dose and/or Minimally Effective Dose: 300 to 400 mg/day
[1]; low risk for seizures
  Dose of Increased Side Effect Risk: <300 mg/day
[1]; moderate risk for seizures
  Dose of Increased Side Effect Risk: 300 to 599 mg/day
DBA/2J mice
  dose at which efficacy was observed in DBA2 mouse PPI: 3 mg/kg

## O=C1Cc2cc(CCN3CCN(c4nsc5ccccc45)CC3)c(Cl)cc2N1 [Ziprasidone, 5-[2-[4-(1,2-benzoisothiazol-3-yl)-1-piperazinyl]ethyl]-6-chloro-1,3-dihydro-2H-indol-2-one]
[1]; EPS risk
  Dose of Increased Side Effect Risk: >80 mg/day
[1]
  EPS risk: dose of augmented risk: risk >80 mg/kg/day
  Optimal Dose and/or Minimally Effective Dose: 120 mg/day

## Cc1cc2c(s1)Nc1ccccc1N=C2N1CCN(C)CC1 [Olanzapine, 2-methyl-4-(4-methyl-1-piperazinyl)-10H-thieno[2,3-b][1,5]benzodiazepine]
[1]
  EPS risk: dose of augmented risk: risk >7.5 mg/kg/day
  Optimal Dose and/or Minimally Effective Dose: 10 to 20 mg/day

## c1cc2cc(-c3ccc(O[C@H]4CN5CCC4CC5)nn3)ccc2[nH]1 [Compound 1]
DBA/2J mice; Compound 1 0.04-4.0 mg/kg i.p. 10 minutes prior to maximally efficacious dose of haloperidol, FIG. 5
  effect on PPI in combination with maximally efficacious haloperidol: significant potentiation of effects; also recorded: does not interfere with the efficacy of haloperidol
DBA/2J mice; Compound 1 (0.04 mg/kg) + risperidone 0.1 mg/kg, FIG. 2
  effect on PPI in combination with sub efficacious risperidone: a maximally efficacious response is achieved; also recorded: boosting the effect of a sub efficacious dose of risperidone
DBA/2J mice; Compound 1 (0.04-4.0 mg/kg) + haloperidol 0.3 mg/kg, FIG. 4
  effect on PPI in combination with sub efficacious haloperidol: more efficacious; also recorded: boosting the effect of a sub efficacious dose of haloperidol
DBA/2J mice; Compound 1 alone at 0.04 mg/kg, FIG. 2
  effect on PPI, alone: does not have an effect
